Experiment [1] in a line: Inhibition of HSV type-2 DNA polymerase after 30 mins by liquid scintillation counting analysis in presence of dATP, dCTP, dGTP and [3H]-TTP. The arrangement: species or system Human alphaherpesvirus 2.
Experiment [2] relates to Human alphaherpesvirus 2. Nature of the experiment: Antiviral activity against Human herpesvirus 2 infected in CF mouse assessed as suppression of virus-induced dermatitis administered topically as 2% aqueous solution twice daily for 6 days measured after day 17. Type of experiment: functional, organism-based.
The test system of experiment [3] is Human alphaherpesvirus 2. In words: Antiviral activity against Human herpesvirus 2 infected in CF mouse assessed as suppression of virus-induced dermatitis at 800 mg/kg/day, po administered for 6 days measured after day 17. Format: functional, organism-based.
For experiment [4], the system named is Human alphaherpesvirus 2. Nature of the experiment: Antiviral activity against Human herpesvirus 2 infected in CF mouse assessed as suppression of virus-induced dermatitis at 100 to 1000 mg/kg/day, po administered for 6 days measured after day 17. Type of experiment: functional, organism-based.

The source made the active and inactive calls. No cut-off for these calls is given here.

Consider `O=C(CP(=O)(O)O)OCc1ccccc1`, for which the I50 in experiment [1] worked out at 40 µg/mL.
Same read-out and setting: the result for `O=C(O)CP(=O)([O-])[O-].[Na+].[Na+]` [DISODIUM CARBOXYMETHYLPHOSPHONATE] reads 0.22 µg/mL.
For the molecule `COc1ccc(P(=O)(O)CC(=O)O)cc1`, the result in experiment [2] and in experiment [3] was inactive. For the same molecule, in experiment [1], the I50 came to 150 µg/mL.
Regarding `O=C(O)CP(=O)(O)c1ccccc1`, the outcome in experiment [2] and in experiment [3] was inactive. Further, in experiment [1], the I50 came to 200 µg/mL.
Consider `O=C(CP(=O)(O)O)OC1CCCCC1`, for which the I50 in experiment [1] was found to be 49 µg/mL.
Regarding `CCCOP(=O)(O)CC(=O)O`, in experiment [1], the I50 is 200 µg/mL.
With `CP(=O)(O)CC(=O)O`, the outcome in experiment [2] was inactive. Moreover, the I50 in experiment [1] came out at 145 µg/mL.
In the case of `CC(C)(C)OC(=O)CP(=O)(O)O`, in experiment [1], the I50 turned out to be 3.9 µg/mL.
In the case of `CCCCCCOP(=O)(O)CC(=O)O`, the result in experiment [2] and in experiment [3] was Active.
With `COP(=O)(O)CC(=O)O`, the I50 in experiment [1] was 19.9 µg/mL.
For `CCCCCCCCOC(=O)CP(=O)(O)O`, the I50 in experiment [1] worked out at 0.26 µg/mL.
Consider `CCCOC(=O)CP(=O)(O)O`, for which the result in experiment [4] and in experiment [2] was Active. Further, the I50 in experiment [1] turned out to be 0.16 µg/mL.

These data come from ChEMBL document CHEMBL3244259, “Synthesis and anti-herpes simplex activity of analogues of phosphonoacetic acid” (J Med Chem, 1977).
